Experimental data: the supplement of paper PMC13380429

Tests used:
Conditions in all cases: 72 h
Vero E6 [1] = assay: drug sensitivity score (DSS) for viability; higher = more toxic; extreme values may be limits of the assay
HepG2 [2] = assay: as above
Calu-3 [3] = assay: as above
U2OS [4] = assay: as above
Caco-2 [5] = assay: as above
Vero E6 [6] = assay: relative viability EC50 (midpoint between 100% and the lowest measured viability); higher = less toxic
HepG2 [7] = assay: as above
Calu-3 [8] = assay: as above
U2OS [9] = assay: as above
Caco-2 [10] = assay: as above
Vero E6 [11] = assay: cell viability relative to DMSO; higher = less toxic
HepG2 [12] = assay: as above
Calu-3 [13] = assay: as above
U2OS [14] = assay: as above
Caco-2 [15] = assay: as above

| Compound | drug sensitivity score (Vero E6 [1]) | drug sensitivity score (HepG2 [2]) | drug sensitivity score (Calu-3 [3]) | drug sensitivity score (U2OS [4]) | drug sensitivity score (Caco-2 [5]) | relative viability EC50 (Vero E6 [6]) [µM] | relative viability EC50 (HepG2 [7]) [µM] | relative viability EC50 (Calu-3 [8]) [µM] | relative viability EC50 (U2OS [9]) [µM] | relative viability EC50 (Caco-2 [10]) [µM] | cell viability (Vero E6 [11]; 1 nM) [%] | cell viability (Vero E6 [11]; 10 nM) [%] | cell viability (Vero E6 [11]; 100 nM) [%] | cell viability (Vero E6 [11]; 1000 nM) [%] | cell viability (Vero E6 [11]; 10000 nM) [%] | cell viability (HepG2 [12]; 1 nM) [%] | cell viability (HepG2 [12]; 10 nM) [%] | cell viability (HepG2 [12]; 100 nM) [%] | cell viability (HepG2 [12]; 1000 nM) [%] | cell viability (HepG2 [12]; 10000 nM) [%] | cell viability (Calu-3 [13]; 1 nM) [%] | cell viability (Calu-3 [13]; 10 nM) [%] | cell viability (Calu-3 [13]; 100 nM) [%] | cell viability (Calu-3 [13]; 1000 nM) [%] | cell viability (Calu-3 [13]; 10000 nM) [%] | cell viability (U2OS [14]; 1 nM) [%] | cell viability (U2OS [14]; 10 nM) [%] | cell viability (U2OS [14]; 100 nM) [%] | cell viability (U2OS [14]; 1000 nM) [%] | cell viability (U2OS [14]; 10000 nM) [%] | cell viability (Caco-2 [15]; 1 nM) [%] | cell viability (Caco-2 [15]; 10 nM) [%] | cell viability (Caco-2 [15]; 100 nM) [%] | cell viability (Caco-2 [15]; 1000 nM) [%] | cell viability (Caco-2 [15]; 10000 nM) [%] |
| --- | --- | --- | --- | --- | --- | --- | --- | --- | --- | --- | --- | --- | --- | --- | --- | --- | --- | --- | --- | --- | --- | --- | --- | --- | --- | --- | --- | --- | --- | --- | --- | --- | --- | --- | --- |
| N[C@@H](C(=O)N[C@@H]1C(=O)N2C(C(=O)O)=C(Cl)CS[C@H]12)c1ccccc1 [cefaclor] | 0 | 0 | 0 | 0 | 0 | > 10 | > 10 | > 10 | > 10 | > 10 | 97 | 98.3 | 101 | 95.8 | 94.7 | 96.4 | 102 | 100 | 104 | 98.5 | 97.1 | 99 | 102 | 102 | 98.5 | 101 | 103 | 99.3 | 98 | 98.2 | 94.7 | 98 | 88.9 | 97.1 | 92.6 |
| O=C1C(=C(O)/C=C/c2ccc(O)cc2)C(=O)[C@@](O)([C@@H]2O[C@H](CO)[C@@H](O)[C@H](O)[C@H]2O)C(=O)[C@H]1[C@@H]1O[C@H](CO)[C@@H](O)[C@H](O)[C@H]1O | 0 | 0 | 0 | 0 | 0 | > 10 | > 10 | > 10 | > 10 | > 10 | 101 | 98.1 | 98.5 | 95.8 | 98.5 | 102 | 97.2 | 104 | 102 | 106 | 103 | 97.6 | 102 | 101 | 97.9 | 101 | 97.8 | 95 | 99.3 | 98.6 | 102 | 91.2 | 93.1 | 93.3 | 95.8 |
| N=C(N)NC(=O)Cc1c(Cl)cccc1Cl [guanfacine] | 0 | 0 | 0 | 0 | 0 | > 10 | > 10 | > 10 | > 10 | > 10 | 93.8 | 105 | 101 | 104 | 89.8 | 88.5 | 95.2 | 93.3 | 94 | 101 | 92.7 | 83.6 | 98.9 | 91.7 | 99.1 | 102 | 93.1 | 104 | 97.4 | 100 | 93.9 | 95.7 | 110 | 104 | 100 |
| Cc1c(Cl)c(C)[n+]([O-])c(Cl)c1-c1noc(-c2cc(O)c(O)c([N+](=O)[O-])c2)n1 [opicapone] | 0 | 0.4 | 0 | 0 | 0 | > 10 | > 10 | > 10 | > 10 | > 10 | 97.3 | 96.6 | 96.3 | 98.6 | 95.8 | 108 | 103 | 110 | 88.1 | 97.9 | 84.3 | 106 | 95.3 | 102 | 105 | 100 | 104 | 94.4 | 102 | 104 | 87.3 | 99 | 93.8 | 111 | 95.4 |
| CSc1ccccc1Nc1nc(N2CCNCC2)nc2c(NCC3CC3)ncnc12 [KHK-IN-1] | 7.3 | 6.9 | 6.4 | 5.8 | 5.2 | 2.26 | 2.47 | 2.7 | 3.04 | 3.39 | 101 | 98.1 | 96.1 | 89.1 | 0.1 | 104 | 91 | 94.1 | 91.6 | 0 | 99.5 | 95.4 | 106 | 94.1 | 0.2 | 97.6 | 98.7 | 95.7 | 98.2 | 0.1 | 103 | 107 | 98.7 | 104 | 0.6 |
| C[N+]1([O-])[C@@H]2CC[C@H]1C[C@@H](OC(=O)C(CO)c1ccccc1)C2 (stereo not given in full) [atropine-oxide] | 0 | 0 | 0 | 0 | 0 | > 10 | > 10 | > 10 | > 10 | > 10 | 88.2 | 103 | 102 | 111 | 95.5 | 88 | 99.2 | 95.8 | 98.6 | 94.5 | 97.6 | 93.3 | 98.6 | 94.4 | 102 | 97.4 | 107 | 101 | 102 | 96.5 | 84 | 96.6 | 99.3 | 90.2 | 93.9 |
| CCC1(c2ccccc2)C(=O)NCNC1=O [primidone] | 0 | 0.2 | 0 | 0 | 0 | > 10 | > 10 | > 10 | > 10 | > 10 | 94.5 | 95.1 | 92 | 92.2 | 95.3 | 112 | 78.9 | 89.4 | 84.9 | 96.3 | 102 | 94.8 | 105 | 94.1 | 114 | 102 | 98.3 | 101 | 102 | 107 | 93.1 | 100 | 84.5 | 101 | 115 |
| CC(C)NCC(O)c1ccc(N)c(C#N)c1 (stereo not given) [cimaterol] | 0 | 0 | 0 | 0 | 0 | > 10 | > 10 | > 10 | > 10 | > 10 | 105 | 104 | 96.6 | 103 | 99.2 | 110 | 91.6 | 96.6 | 91.7 | 94.1 | 102 | 93.2 | 101 | 99.2 | 96.6 | 100 | 99.4 | 106 | 97 | 105 | 96 | 93.2 | 94.2 | 89.8 | 102 |
| CC(C)C[C@H](NC(=O)[C@@H](O)[C@H](N)Cc1ccccc1)C(=O)O [ubenimex] | 0 | 0 | 0 | 0 | 0 | > 10 | > 10 | > 10 | > 10 | > 10 | 101 | 98.8 | 102 | 98.7 | 101 | 105 | 93.4 | 111 | 102 | 95.4 | 103 | 96 | 104 | 105 | 104 | 97 | 105 | 103 | 99.8 | 98.5 | 98.2 | 108 | 95.9 | 103 | 103 |
| O=C1C[C@@]2(C(=O)N1)C(=O)N(Cc1ccc(Br)cc1F)C(=O)c1cccn12 [ranirestat] | 0 | 0 | 0 | 0 | 0 | > 10 | > 10 | > 10 | > 10 | > 10 | 94 | 96.7 | 90.8 | 92.2 | 100 | 102 | 106 | 90.6 | 99.2 | 104 | 92.6 | 104 | 104 | 102 | 95.8 | 96.8 | 97.1 | 103 | 96.8 | 100 | 99.6 | 98.4 | 101 | 98.6 | 103 |
| N#Cc1c(N(CC(=O)O)CC(=O)O)sc(C(=O)O)c1CC(=O)O [Strontium Ranelate] | 0 | 0 | 0 | 0 | 0 | > 10 | > 10 | > 10 | > 10 | > 10 | 96.7 | 101 | 100 | 97.6 | 99.8 | 93.7 | 94.9 | 103 | 100 | 108 | 106 | 87.9 | 98.7 | 104 | 104 | 97.3 | 102 | 100 | 101 | 96.7 | 93 | 102 | 93.6 | 106 | 91.2 |
| N#Cc1ccccc1-c1cc(-c2ccccn2)cn(-c2ccccc2)c1=O [Perampanel] | 0 | 0 | 0 | 0 | 0 | > 10 | > 10 | > 10 | > 10 | > 10 | 92.1 | 101 | 95.4 | 96.9 | 92.4 | 98.7 | 108 | 104 | 105 | 119 | 90.5 | 97.5 | 96.5 | 103 | 95.6 | 94 | 94 | 99.6 | 96.2 | 99.7 | 90.5 | 106 | 97.5 | 93.6 | 104 |
